Test results reported in patent EP4763839A1 (Pamplona Therapeutics (Shenzhen) Co., Ltd., priority 2023, dated 2025).
Counter-ions that a name gives are not always drawn. Like-named read-outs stand apart in the source and are kept apart here.

Molecular target: T1, IRAK4 (Homo sapiens, UniProt Q9NWZ3)
T1 sequence (Q9NWZ3 1-460): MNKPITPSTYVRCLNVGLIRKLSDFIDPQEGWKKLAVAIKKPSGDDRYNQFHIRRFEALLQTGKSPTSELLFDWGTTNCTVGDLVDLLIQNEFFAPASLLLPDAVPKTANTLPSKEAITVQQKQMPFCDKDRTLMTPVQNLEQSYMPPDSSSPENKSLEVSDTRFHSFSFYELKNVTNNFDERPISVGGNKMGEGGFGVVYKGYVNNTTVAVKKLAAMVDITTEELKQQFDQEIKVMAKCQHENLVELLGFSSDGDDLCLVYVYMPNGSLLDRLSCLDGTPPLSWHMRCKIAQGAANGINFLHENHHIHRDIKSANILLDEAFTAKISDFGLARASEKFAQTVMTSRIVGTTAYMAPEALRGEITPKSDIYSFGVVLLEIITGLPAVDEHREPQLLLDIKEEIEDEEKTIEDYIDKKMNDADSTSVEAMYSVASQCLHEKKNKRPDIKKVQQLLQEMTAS
Test: Degradation of IRAK4 in THP1 cells, Western blot
Format: cell-based
Design: Degradation of IRAK4 in THP1 by compound; host or cells: THP-1
Experimental: After 24 hours of incubation, the cells were collected into 1.5 mL centrifuge tubes and centrifuged at 1,000 rpm for 5 minutes. […] The supernatants were collected, and the IRAK4 protein levels were respectively detected by Western blot (WB). The total protein concentration in the cell lysate supernatant was determined using a BCA protein quantification kit (NCM). Based on the total protein concentration detected by BCA, the samples were adjusted to 2 μg/μL using cell lysis buffer and 5×SDS-PAGE protein loading buffer (Beyotime), heated at 95°C for 5 minutes in a metal bath, and then placed on ice for an ice bath for 5 minutes before being used as the loading samples for Western blot analysis. Protein electrophoresis was performed using a 10% SDS-PAGE gel with a loading volume of 20 μL (total protein 40 μg) and Tris-SDS electrophoresis at a constant voltage of 80 V. After electrophoresis, the proteins on the gel were transferred to a 0.2 μm PVDF membrane (Immobilon) using a semi-dry transfer method at 0.5 A and 20 V for 60 minutes. After transfer, the membrane was placed in 5% skimmed milk and incubated at rt for 2 hours. After blocking, the PVDF membrane was incubated with primary antibody against IRAK4 (Abcam) at 4°C overnight. […] The color development and protein band imaging were performed using a chemiluminescence imaging system ([…] Technology Co., Ltd.). The protein bands were analyzed for grayscale values using Image J analysis software. The corrected grayscale values for each sample were calculated and then compared with those of the control group treated with DMSO alone to calculate the degradation rate.

[1] = THP-1 cells, 24 hours of incubation, IRAK4 protein by Western blot, read-out: DC50
[2] = maximum degradation rate, THP-1 cells, 24 hours of incubation, read-out: Dmax

Cn1c(=O)n(C2CCC(=O)NC2=O)c2cccc(N3CCC(C(=O)N4CCN(c5ccc(-n6cc(NC(=O)c7cccc(C(F)(F)F)n7)c(C(N)=O)n6)cc5)CC4)CC3)c21 (stereo not drawn) [Compound A368, N-(3-Carbamoyl-1-(4-(4-(1-(1-(2,6-dioxopiperidin-3-yl)-3-methyl-2-oxo-2,3-dihydro-1H-benzo[d]imidazol-4-yl)piperidine-4-carbonyl)piperazin-1-yl)phenyl)-1H-pyrazol-4-yl)-6-(trifluoromethyl)picolinamide] gave a DC50 [1] of less than 100 nM and a Dmax [2] greater than 60%.

With CC(C)(O)c1nn(-c2ccc(N3CCN(CC4CCN(c5ccc(NC6CCC(=O)NC6=O)cc5F)CC4)CC3)cc2)cc1NC(=O)c1cccc(C#N)n1 (stereo not drawn) [Compound A386, 6-Cyano-N-(1-(4-(4-((1-(4-((2,6-dioxopiperidin-3-yl)amino)-2-fluorophenyl)piperidin-4-yl)methyl)piperazin-1-yl)phenyl)-3-(2-hydroxypropan-2-yl)-1H-pyrazol-4-yl)picolinamide] the DC50 [1] was greater than 1000 nM and the Dmax [2] was less than 40%.

In the case of Cn1c(=O)n(C2CCC(=O)NC2=O)c2cccc(NCCN3CC4CN(C(=O)c5ccc(-n6cc(NC(=O)c7cccc(-c8ccn[nH]8)n7)c(S(N)(=O)=O)n6)cc5)CC4C3)c21 (stereo not drawn) [Compound A339], the DC50 [1] is reported as less than 100 nM and the Dmax [2] is reported as greater than 60%.

Cn1c(=O)n(C2CCC(=O)NC2=O)c2cccc(N3CCC(N4CCN(Cc5ccc(-n6cc(NC(=O)c7cccc(C(F)(F)F)n7)c(C(N)=O)n6)cc5)CC4)CC3)c21 (stereo not drawn) [Compound A373, N-(3-Carbamoyl-1-(4-(4-(1-(1-(2,6-dioxopiperidin-3-yl)-3-methyl-2-oxo-2,3-dihydro-1H-benzo[d]imidazol-4-yl)piperidin-4-yl)piperazin-1-yl)methyl)phenyl)-1H-pyrazol-4-yl)-6-(trifluoromethyl)picolinamide formate] showed a DC50 [1] of less than 100 nM and a Dmax [2] greater than 60%.

Compound NC(=O)c1nn(-c2ccc(N3CCN(C(=O)C4CN(c5cc(F)c(C6CCC(=O)NC6=O)c(F)c5)C4)CC3)cc2)cc1NC(=O)c1cccc(C(F)(F)F)n1 (stereo not drawn) [Compound A411, N-(3-carbamoyl-1-(4-(4-(1-(4-(2,6-dioxopiperidin-3-yl)-3,5-difluorophenyl)azetidine-3-carbonyl)piperazin-1-yl)phenyl)-1H-pyrazol-4-yl)-6-(trifluoromethyl)picolinamide] has a DC50 [1] of less than 100 nM and a Dmax [2] greater than 60%.

Compound NC(=O)c1nn(-c2ccc(N3CCN(CC4CC5(CCN(c6ccc(N7CCC(=O)NC7=O)cc6)CC5)C4)CC3)cc2)cc1NC(=O)c1cccc(C(F)(F)F)n1 [Compound A392, N-(3-Carbamoyl-1-(4-(4-((7-(4-(2,4-dioxotetrahydropyrimidin-1(2H)-yl)phenyl)-7-azaspiro[3.5]nonan-2-yl)methyl)piperazin-1-yl)phenyl)-1H-pyrazol-4-yl)-6-(trifluoromethyl)picolinamide] has a DC50 [1] of 100 to 1000 nM and a Dmax [2] of 40 to 60%.

Cn1c(=O)n(C2CCC(=O)NC2=O)c2cccc(C#CCCN3CCN(C(=O)c4ccc(-n5cc(NC(=O)c6cccc(-c7ccn[nH]7)n6)c(S(N)(=O)=O)n5)cc4)CC3)c21 (stereo not drawn) [Compound A336] gave a DC50 [1] of less than 100 nM and a Dmax [2] greater than 60%.

N#Cc1ccnc(C(=O)Nc2cn(-c3ccc(N4CCN(C5CCN(c6ccc(NC7CCC(=O)NC7=O)cc6F)CC5)CC4)cc3)nc2C(N)=O)c1 (stereo not drawn) [Compound A387, N-(3-Carbamoyl-1-(4-(4-(1-(4-((2,6-Dioxopiperidin-3-yl)amino)-2-fluorophenyl)piperidin-4-yl)piperazin-1-yl)phenyl)-1H-pyrazol-4-yl)-4-cyanopicolinamide] showed a DC50 [1] greater than 1000 nM and a Dmax [2] of less than 40%.

NC(=O)c1cn(-c2ccc(N3CCN(C4CCN(c5ccc(C(=O)NC6CCC(=O)NC6=O)nc5)CC4)CC3)cc2)cc1NC(=O)c1cccc(C(F)(F)F)n1 (stereo not drawn) [Compound A452, N-(4-Carbamoyl-1-(4-(4-(1-(6-((2,6-dioxopiperidin-3-yl)carbamoyl)pyridin-3-yl)piperidin-4-yl)piperazin-1-yl)phenyl)-1H-pyrrol-3-yl)-6-(trifluoromethyl)picolinamide] was tested, and the DC50 [1] was less than 100 nM and the Dmax [2] was greater than 60%.

Compound NC(=O)c1cn(-c2ccc(N3CCN(CC4CCN(c5ccc(NC6CCC(=O)NC6=O)cc5F)CC4)CC3)cc2)cc1NC(=O)c1cccc(C(F)(F)F)n1 (stereo not drawn) [Compound A427, N-(4-Carbamoyl-1-(4-(4-((1-(4-((2,6-Dioxopiperidin-3-yl)amino)-2-fluorophenyl)piperidin-4-yl)methyl)piperazin-1-yl)phenyl)-1H-pyrrol-3-yl)-6-(trifluoromethyl)picolinamide] has a DC50 [1] of less than 100 nM and a Dmax [2] greater than 60%.

Compound Cn1c(=O)n(C2CCC(=O)NC2=O)c2cccc(N3CCC(CCN4CCN(c5ccc(-n6cc(NC(=O)c7cccc(C(F)(F)F)n7)c(C(N)=O)n6)cc5)CC4)C(F)(F)C3)c21 (stereo not drawn) [Compound A300] has a DC50 of less than 100 nM and a Dmax (THP-1) greater than 60%.

Work on NC(=O)c1nn(-c2ccc(N3CCN(CCC4CCN(C(=O)c5ccc(F)c(N6CCC(=O)NC6=O)c5)CC4)CC3)cc2)cc1NC(=O)c1cccc(C(F)(F)F)n1 [Compound A402, N-(3-Carbamoyl-1-(4-(4-(2-(1-(3-(2,4-dioxotetrahydropyrimidin-1(2H)-yl)-4-fluorobenzoyl)piperidin-4-yl)ethyl)piperazin-1-yl)phenyl)-1H-pyrazol-4-yl)-6-(trifluoromethyl)picolinamide trifluoroacetate] yielded a DC50 [1] of less than 100 nM and a Dmax [2] greater than 60%.

For COc1cc(NC2CCC(=O)NC2=O)ccc1N1CCC(CN2CCN(c3ccc(-n4cc(NC(=O)c5cccc(C(F)(F)F)n5)c(C(N)=O)n4)cc3)CC2)CC1 (stereo not drawn) [Compound A423, N-(3-Carbamoyl-1-(4-(4-((1-(4-((2,6-dioxopiperidin-3-yl)amino)-2-methoxyphenyl)piperidin-4-yl)methyl)piperazin-1-yl)phenyl)-1H-pyrazol-4-yl)-6-(trifluoromethyl)picolinamide], the DC50 [1] was 100 to 1000 nM and the Dmax [2] was greater than 60%.

NC(=O)c1nn(-c2ccc(N3CCN(C4CCN(c5ccc(C(=O)NC6CCC(=O)NC6=O)nc5)CC4)CC3)cc2)cc1NC(=O)c1cccc(C(F)(F)F)n1 (stereo not drawn) [Compound A379, N-(3-Carbamoyl-1-(4-(4-(1-(6-((2,6-dioxopiperidin-3-yl)carbamoyl)pyridin-3-yl)piperidin-4-yl)piperazin-1-yl)phenyl)-1H-pyrazol-4-yl)-6-(trifluoromethyl)picolinamide] gave a DC50 [1] of less than 100 nM and a Dmax [2] greater than 60%.

Cn1c(=O)n(C2CCC(=O)NC2=O)c2ccc(N3CCC(CN4CCN(c5ccc(-n6cc(NC(=O)c7cccc(-c8ccn[nH]8)n7)c(S(N)(=O)=O)n6)cc5)CC4)CC3)cc21 (stereo not drawn) [Compound A326, N-[3-(aminodioxyylidene-λ6-thio)-1-{4-[4-({1-[1-(2,6-dioxopiperidin-3-yl)-3-methyl-2-oxobenzo[d]imidazol-5-yl]piperidin-4-yl}methyl)piperazin-1-yl]phenyl}pyrazol-4-yl]-6-(2H-pyrazol-3-yl)pyridine-2-carboxamide] showed a DC50 [1] of less than 100 nM and a Dmax [2] greater than 60%.

Work on NC(=O)c1nn(-c2ccc(N3CCN(C(=O)C4CN(c5ccc(N6CCC(=O)NC6=O)cc5)C4)CC3)cc2)cc1NC(=O)c1cccc(C(F)(F)F)n1 [Compound A409, N-(3-Carbamoyl-1-(4-(4-(1-(4-(2,4-dioxotetrahydropyrimidin-1(2H)-yl)phenyl)azetidine-3-carbonyl)piperazin-1-yl)phenyl)-1H-pyrazol-4-yl)-6-(trifluoromethyl)picolinamide] yielded a DC50 [1] of less than 100 nM and a Dmax [2] greater than 60%.

Compound COc1ccc(C(=O)N2CCC(CN3CCN(C(=O)c4ccc(-n5cc(NC(=O)c6cccc(C(F)(F)F)n6)c(C(N)=O)n5)cc4)CC3)C2)cc1N1CCC(=O)NC1=O (stereo not drawn) [Compound A313, N-(3-carbamoyl-1-(4-((1-(3-(2,4-dioxotetrahydropyrimidin-1(2H)yl)-4-methoxybenzoyl)pyrrolidin-3-yl)methyl)piperazine-1-carbonyl)phenyl)-1H-pyrazol-4-yl)-6-(trifluoromethyl)picolinamide trifluoroacetate] has a DC50 [1] of 100 to 1000 nM and a Dmax [2] greater than 60%.

NC(=O)c1nn(-c2ccc(N3CCN(C4CCN(c5ccc(C(=O)NC6CCC(=O)NC6=O)cn5)CC4)CC3)cc2)cc1NC(=O)c1cccc(C(F)(F)F)n1 (stereo not drawn) [Compound A433, N-(3-Carbamoyl-1-(4-(4-(1-(5-((2,6-dioxopiperidin-3-yl)carbamoyl)pyridin-2-yl)piperidin-4-yl)piperazin-1-yl)phenyl)-1H-pyrazol-4-yl)-6-(trifluoromethyl)picolinamide] was tested, and the DC50 [1] was 100 to 1000 nM and the Dmax [2] was 40 to 60%.
